Test results: the supplement of paper PMC13207355

What was measured:
Conditions in all cases: exposure time: 72 h
[1] = test system: E28 (patient-derived glioblastoma stem cells of classical subtype); assay: phenotypic distance (Euclidean, principal components) from DMSO controls (arbitrary units); higher = stronger morphological change
[2] = test system: E34 (patient-derived glioblastoma stem cells of proneural subtype); assay: as above
[3] = test system: FT3469 (normal neural stem cell line); assay: as above
[4] = test system: E57 (patient-derived glioblastoma stem cells of mesenchymal subtype); assay: as above
[5] = test system: E13 (patient-derived glioblastoma stem cells of classical subtype); assay: as above
[6] = test system: E31 (patient-derived glioblastoma stem cells of proneural subtype); assay: as above
[7] = test system: E21 (patient-derived glioblastoma stem cells of mesenchymal subtype); assay: as above
[8] = test system: E28; assay: surviving fraction (nuclei count normalised to DMSO); higher = more cells surviving (less toxic)
[9] = test system: E34; assay: as above
[10] = test system: FT3469; assay: as above
[11] = test system: E57; assay: as above
[12] = test system: E13; assay: as above
[13] = test system: E31; assay: as above
[14] = test system: E21; assay: as above
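For phenotypic distance (Euclidean, principal components) from DMSO controls in this document: cell Painting imaging in 384-well plates, CellProfiler features reduced to at least 20 principal components, Euclidean distance versus same-plate DMSO vehicle wells (0.1% v/v), median over six images per well.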
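For surviving fraction (nuclei count normalised to DMSO) in this document: nuclei counted by high-content imaging of Hoechst-stained cells in laminin-coated 384-well plates, relative to 0.1% DMSO vehicle wells, with staurosporine as cell-death control.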

COC(=O)C1=C(C)NC(C)=C(C(=O)OCC(C)C)C1c1ccccc1[N+](=O)[O-] (centres undefined) [Nisoldipine]
Conditions	phenotypic distance	surviving fraction
[1], 4.1 nM	0.647	–
[1], 12.3 nM	0.706	–
[1], 37 nM	1.08	–
[1], 111.1 nM	0.981	–
[1], 333.3 nM	0.997	–
[1], 1000 nM	0.908	–
[1], 3000 nM	0.792	–
[2], 4.1 nM	2	–
[2], 12.3 nM	0.511	–
[2], 37 nM	0.835	–
[2], 111.1 nM	0.542	–
[2], 333.3 nM	0.889	–
[2], 1000 nM	0.614	–
[2], 3000 nM	1.06	–
[3], 4.1 nM	0.816	–
[3], 12.3 nM	1.12	–
[3], 37 nM	0.632	–
[3], 111.1 nM	0.827	–
[3], 333.3 nM	1.05	–
[3], 1000 nM	1.4	–
[3], 3000 nM	0.987	–
[4], 4.1 nM	0.873	–
[4], 12.3 nM	0.508	–
[4], 37 nM	0.494	–
[4], 111.1 nM	0.633	–
[4], 333.3 nM	0.615	–
[4], 1000 nM	0.552	–
[4], 3000 nM	0.478	–
[5], 4.1 nM	0.597	–
[5], 12.3 nM	0.435	–
[5], 37 nM	0.491	–
[5], 111.1 nM	3.02	–
[5], 333.3 nM	1.31	–
[5], 1000 nM	1.21	–
[5], 3000 nM	1.2	–
[6], 4.1 nM	0.922	–
[6], 12.3 nM	1.01	–
[6], 37 nM	1.26	–
[6], 111.1 nM	0.944	–
[6], 333.3 nM	0.976	–
[6], 1000 nM	1.03	–
[6], 3000 nM	1.31	–
[7], 4.1 nM	0.832	–
[7], 12.3 nM	0.907	–
[7], 37 nM	1.12	–
[7], 111.1 nM	1.2	–
[7], 333.3 nM	0.961	–
[7], 1000 nM	0.669	–
[7], 3000 nM	1.16	–
[8], 4.1 nM	–	0.944
[8], 12.3 nM	–	0.957
[8], 37 nM	–	0.921
[8], 111.1 nM	–	0.86
[8], 333.3 nM	–	0.843
[8], 1000 nM	–	0.972
[8], 3000 nM	–	0.9
[9], 4.1 nM	–	0.949
[9], 12.3 nM	–	0.965
[9], 37 nM	–	1.04
[9], 111.1 nM	–	0.931
[9], 333.3 nM	–	0.853
[9], 1000 nM	–	0.959
[9], 3000 nM	–	0.955
[10], 4.1 nM	–	0.965
[10], 12.3 nM	–	0.938
[10], 37 nM	–	1.04
[10], 111.1 nM	–	0.966
[10], 333.3 nM	–	0.965
[10], 1000 nM	–	0.942
[10], 3000 nM	–	0.896
[11], 4.1 nM	–	0.904
[11], 12.3 nM	–	0.985
[11], 37 nM	–	0.923
[11], 111.1 nM	–	0.969
[11], 333.3 nM	–	0.929
[11], 1000 nM	–	1.07
[11], 3000 nM	–	0.96
[12], 4.1 nM	–	0.894
[12], 12.3 nM	–	1.08
[12], 37 nM	–	0.924
[12], 111.1 nM	–	0.974
[12], 333.3 nM	–	0.947
[12], 1000 nM	–	0.946
[12], 3000 nM	–	0.883
[13], 4.1 nM	–	0.972
[13], 12.3 nM	–	0.914
[13], 37 nM	–	0.886
[13], 111.1 nM	–	0.892
[13], 333.3 nM	–	0.949
[13], 1000 nM	–	0.996
[13], 3000 nM	–	0.938
[14], 4.1 nM	–	0.82
[14], 12.3 nM	–	0.905
[14], 37 nM	–	0.945
[14], 111.1 nM	–	0.892
[14], 333.3 nM	–	0.945
[14], 1000 nM	–	0.942
[14], 3000 nM	–	0.857

CCCSc1ccc2[nH]c(NC(=O)OC)nc2c1 [Albendazole]
Conditions	phenotypic distance	surviving fraction
[1], 4.1 nM	0.748	–
[1], 12.3 nM	0.904	–
[1], 37 nM	0.875	–
[1], 111.1 nM	1.25	–
[1], 333.3 nM	2.28	–
[1], 1000 nM	3.22	–
[1], 3000 nM	3.85	–
[2], 4.1 nM	0.51	–
[2], 12.3 nM	1.47	–
[2], 37 nM	1.32	–
[2], 111.1 nM	0.857	–
[2], 333.3 nM	2.54	–
[2], 1000 nM	3.76	–
[2], 3000 nM	5.5	–
[3], 4.1 nM	0.912	–
[3], 12.3 nM	1.05	–
[3], 37 nM	0.721	–
[3], 111.1 nM	1.33	–
[3], 333.3 nM	2.27	–
[3], 1000 nM	3.43	–
[3], 3000 nM	3.98	–
[4], 4.1 nM	0.729	–
[4], 12.3 nM	1.11	–
[4], 37 nM	0.859	–
[4], 111.1 nM	1.5	–
[4], 333.3 nM	3.52	–
[4], 1000 nM	5.59	–
[4], 3000 nM	4.71	–
[5], 4.1 nM	1.01	–
[5], 12.3 nM	0.56	–
[5], 37 nM	0.737	–
[5], 111.1 nM	2.95	–
[5], 333.3 nM	4.43	–
[5], 1000 nM	4.68	–
[5], 3000 nM	7.36	–
[6], 4.1 nM	0.384	–
[6], 12.3 nM	0.712	–
[6], 37 nM	0.564	–
[6], 111.1 nM	1.13	–
[6], 333.3 nM	3.4	–
[6], 1000 nM	5.94	–
[6], 3000 nM	5.22	–
[7], 4.1 nM	1.02	–
[7], 12.3 nM	0.918	–
[7], 37 nM	1.01	–
[7], 111.1 nM	1.35	–
[7], 333.3 nM	3.4	–
[7], 1000 nM	7.12	–
[7], 3000 nM	8.62	–
[8], 4.1 nM	–	0.86
[8], 12.3 nM	–	0.988
[8], 37 nM	–	0.734
[8], 111.1 nM	–	1.04
[8], 333.3 nM	–	0.719
[8], 1000 nM	–	0.536
[8], 3000 nM	–	0.28
[9], 4.1 nM	–	0.934
[9], 12.3 nM	–	1.06
[9], 37 nM	–	0.937
[9], 111.1 nM	–	0.927
[9], 333.3 nM	–	0.656
[9], 1000 nM	–	0.476
[9], 3000 nM	–	0.439
[10], 4.1 nM	–	0.783
[10], 12.3 nM	–	0.812
[10], 37 nM	–	0.76
[10], 111.1 nM	–	0.924
[10], 333.3 nM	–	0.725
[10], 1000 nM	–	0.662
[10], 3000 nM	–	0.504
[11], 4.1 nM	–	1.02
[11], 12.3 nM	–	0.99
[11], 37 nM	–	0.873
[11], 111.1 nM	–	0.909
[11], 333.3 nM	–	0.715
[11], 1000 nM	–	0.257
[11], 3000 nM	–	0.0825
[12], 4.1 nM	–	0.787
[12], 12.3 nM	–	0.877
[12], 37 nM	–	0.931
[12], 111.1 nM	–	0.655
[12], 333.3 nM	–	0.439
[12], 1000 nM	–	0.373
[12], 3000 nM	–	0.222
[13], 4.1 nM	–	0.993
[13], 12.3 nM	–	0.833
[13], 37 nM	–	0.874
[13], 111.1 nM	–	0.758
[13], 333.3 nM	–	0.408
[13], 1000 nM	–	0.186
[13], 3000 nM	–	0.0928
[14], 4.1 nM	–	0.887
[14], 12.3 nM	–	0.807
[14], 37 nM	–	0.834
[14], 111.1 nM	–	0.804
[14], 333.3 nM	–	0.755
[14], 1000 nM	–	0.169
[14], 3000 nM	–	0.118

CN1C(=O)CC(c2ccccc2)C1=O (centres undefined) [Phensuximide]
Conditions	phenotypic distance	surviving fraction
[1], 4.1 nM	0.664	–
[1], 12.3 nM	0.467	–
[1], 37 nM	0.453	–
[1], 111.1 nM	0.603	–
[1], 333.3 nM	0.45	–
[1], 1000 nM	0.513	–
[1], 3000 nM	0.714	–
[2], 4.1 nM	0.49	–
[2], 12.3 nM	0.73	–
[2], 37 nM	0.867	–
[2], 111.1 nM	0.657	–
[2], 333.3 nM	1.01	–
[2], 1000 nM	0.819	–
[2], 3000 nM	0.663	–
[3], 4.1 nM	1.58	–
[3], 12.3 nM	0.664	–
[3], 37 nM	0.821	–
[3], 111.1 nM	0.515	–
[3], 333.3 nM	0.721	–
[3], 1000 nM	0.254	–
[3], 3000 nM	0.402	–
[4], 4.1 nM	0.764	–
[4], 12.3 nM	0.516	–
[4], 37 nM	0.543	–
[4], 111.1 nM	0.342	–
[4], 333.3 nM	0.878	–
[4], 1000 nM	0.346	–
[4], 3000 nM	0.811	–
[5], 4.1 nM	1.82	–
[5], 12.3 nM	4.3	–
[5], 37 nM	2.63	–
[5], 111.1 nM	0.682	–
[5], 333.3 nM	0.274	–
[5], 1000 nM	0.544	–
[5], 3000 nM	0.597	–
[6], 4.1 nM	0.79	–
[6], 12.3 nM	0.39	–
[6], 37 nM	0.726	–
[6], 111.1 nM	0.491	–
[6], 333.3 nM	0.604	–
[6], 1000 nM	0.913	–
[6], 3000 nM	0.717	–
[7], 4.1 nM	0.59	–
[7], 12.3 nM	0.489	–
[7], 37 nM	0.352	–
[7], 111.1 nM	0.519	–
[7], 333.3 nM	0.385	–
[7], 1000 nM	0.686	–
[7], 3000 nM	0.387	–
[8], 4.1 nM	–	1.07
[8], 12.3 nM	–	1.03
[8], 37 nM	–	1.15
[8], 111.1 nM	–	1.09
[8], 333.3 nM	–	1
[8], 1000 nM	–	0.995
[8], 3000 nM	–	1.2
[9], 4.1 nM	–	0.918
[9], 12.3 nM	–	1.14
[9], 37 nM	–	0.912
[9], 111.1 nM	–	0.81
[9], 333.3 nM	–	1.16
[9], 1000 nM	–	1.1
[9], 3000 nM	–	1.1
[10], 4.1 nM	–	0.946
[10], 12.3 nM	–	0.989
[10], 37 nM	–	1
[10], 111.1 nM	–	1
[10], 333.3 nM	–	0.985
[10], 1000 nM	–	1.01
[10], 3000 nM	–	1.15
[11], 4.1 nM	–	1.02
[11], 12.3 nM	–	1.06
[11], 37 nM	–	1.05
[11], 111.1 nM	–	1.03
[11], 333.3 nM	–	1.05
[11], 1000 nM	–	1.04
[11], 3000 nM	–	0.978
[12], 4.1 nM	–	0.921
[12], 12.3 nM	–	0.916
[12], 37 nM	–	1.01
[12], 111.1 nM	–	1
[12], 333.3 nM	–	1
[12], 1000 nM	–	1.06
[12], 3000 nM	–	0.927
[13], 4.1 nM	–	1.08
[13], 12.3 nM	–	1.07
[13], 37 nM	–	1.1
[13], 111.1 nM	–	1.01
[13], 333.3 nM	–	1.14
[13], 1000 nM	–	1.13
[13], 3000 nM	–	0.991
[14], 4.1 nM	–	0.998
[14], 12.3 nM	–	0.996
[14], 37 nM	–	1.03
[14], 111.1 nM	–	1.04
[14], 333.3 nM	–	1
[14], 1000 nM	–	1.09
[14], 3000 nM	–	0.963
